In US9770423B2, “Modulation sAPP, sAAPα and BDNF levels in individuals diagnosed with FXS and ASD” (Indiana University Research and Technology Corp., priority 2012, dated 2017):
Where “and” joins values, the source holds several entries; their conditions need not be identical. Identical values can stand only once.

Test system: sAPP
Assay: plasma sAPP total by ELISA pre- and post-acamprosate
Assay type: in vivo, human
From the text: For sAPP levels, the Test plasma samples should be measured soon after collection. […] Just before assay, we thawed the test samples at a low temperature and mixed them completely. The plasma samples should be diluted appropriately with the EIA buffer, if needed. Duplicate measurement of test samples and standard are recommended. We used test samples in neutral pH range, and avoided the contaminations of organic solvent that may affect the measurement. Regarding the standard to quantify levels of sAPP, we prepared a series of sAPP standards in EIA buffer by serial dilutions, from 0.39 ng/mL to 25 ng/mL.
The ELISA plate was pre-coated with anti-human APP (R12A1) mouse IgG (IBL). First, the wells for reagent blank was determined, and 100 μL each of “EIA buffer” or 10 mM NaHCO3 buffer was added into the wells. Likewise, wells were assigned for test sample blank, test sample and diluted standard. Then 100 μL each of test sample blank, test sample and dilutions of standard was added into the appropriate wells. The test sample included the plasma sample from each subject, which may vary from 5-25 μl, made up to 100 μL with the EIA buffer. Each pre-coated plates was incubated overnight at 4° C. after covering it tightly with a plate lid. The plate was kept onto a rocker with gentle shaking. The next day, each well of the pre-coated plate was vigorously washed with wash buffer containing 0.05% Tween20 in phosphate buffer. This was performed by filling each well with wash buffer, leaving the pre-coated plate laid for 15-30 seconds and removing wash buffer completely from the plate by snapping. This procedure was repeated five times. After removing the remaining liquid from all wells completely by snapping the plate onto paper towel, we added 100 μL of labeled antibody solution into the wells of test samples, diluted standard and test sample blank. HRP labeled anti-Human APP (R101A4) mouse IgG from IBL was used. The plate was incubated for 30 minutes at 4° C. after covering it with plate lid, and then washed the plate 5 times in the same manner as described before. To develop the color, 100 μL of the Chromogen (TMB solution) was adding into the wells, and the plate was incubated for 30 minutes at room temperature in the dark.
When the liquid started turning blue (by addition of the Chromogen), 100 μL of the Stop solution (1N H2SO4) was added into the wells. […] A plate reader was used and measurements were conducted at 450 nm against a reagent blank. […]
The first project enrolled 12 youth aged 5 to 17 years with fragile X syndrome and comorbid ASD in a 10-week open-label trial of acamprosate. […] Plasma sAPP total and sAPPα were determined in serum using the ELISA kit obtained from Immuno Biological Laboratories (IBL, Gumma, Japan). […]

## CC(=O)NCCCS(=O)(=O)O.[Ca] [acamprosate, Calcium Acetylhomotaurine]
Individual patients 1-6, baseline to Week 12
  fractional change in sAPP (total)-CP: −0.8279 and −0.3066 and −0.0102 and −0.1029 and −0.437 and −0.544
Pooled 15 participants (9 FXS, 6 idiopathic ASD), pre-treatment 32.6±38.3 ng/mL, p=0.01
  mean sAPP total post-treatment: 21.4 ± 32.3 ng/mL
Pooled 15 subjects
  levels of both sAPP total and sAPPα, direction of change per sample: reduced with treatment in every sample tested except in one subject with idiopathic ASD where sAPPα was unchanged
Six subjects of the 12-week trial, baseline 34.7 ng/mL, p=0.02
  mean sAPP total levels at endpoint: 19.3 ng/mL
